Patent US10603335B2, “Cancer treatment combination compositions, methods and uses” (Board of Supervisors of Louisiana State University and …, priority 2016, dated 2020)

Tests used:
[1] = tested on: cleaved PARP, XIAP and cIAP2 in MiaPaca-2 cells; assay: Western blot of apoptosis markers and inhibitors of apoptosis, MiaPaca-2; format: cell-based, human; conditions: for XIAP and c-IAP2 protein levels: 24 h
Description: (§1) Pancreatic cells were collected after trypsinization and seeded in 12-well plates for 24 h before treatments. Treatments were performed as described in the Figure legends. Following treatment, whole cell lysates were collected in Laemmli buffer and analyzed by Western blot. The following primary antibodies were used: XIAP, c-IAP2, cleaved PARP, Caspase-3 (all from Cell Signaling), actin (Santa Cruz) and LHRHR (Abcam).
(§2) Western blot analysis. Actin, GAPDH and Ponceau staining were used as loading controls. Gemcitabine was diluted in water. Curcumin and LHRH-curcumin were diluted in DMSO. Cells were treated as follows:
(§3) Western blot analysis. Actin, GAPDH and Ponceau staining were used as loading controls. Gemcitabine was diluted in water. Curcumin and LHRH-curcumin were diluted in DMSO. The cells were treated as follows:
(§4) Western blot analysis. Actin was used as loading control. Both gemcitabine and LHRH-curcumin were diluted in water.

[2] = tested on: XIAP, cIAP1 and cIAP2 mRNA in Panc-1 cells; assay: Quantitative PCR of inhibitors of apoptosis, Panc-1; format: cell-based; conditions: 50 uM, 24 h post-treatment, relative to DMSO, GAPDH reference
Description: mRNA levels of XIAP, c-IAP1 and c-IAP2 were determined by quantitative real-time PCR using the SYBR Green Real-Time PCR Master Mix form ThermoFisher. Thermal cycling was carried out using the CFX system from BioRad under the following conditions: 95° C. for 10 min and 40 cycles at 95° C. for 15 s and 55° C. for 60 s. mRNA expression for any given gene is represented as comparative to the DMSO-treated cells. GAPDH was used as the housekeeping gene of reference.
GAPDH was used as a reference. Results presented in FIG. 12A (XIAP relative mRNA levels), FIG. 12B (cIAP1 relative mRNA levels), FIG. 12C (cIAP2 relative mRNA levels).

[3] = tested on: cleaved PARP, XIAP and cIAP2 in Panc-1 cells; assay: Western blot of apoptosis markers and inhibitors of apoptosis, Panc-1; format: cell-based; conditions: for XIAP and c-IAP2 protein levels: 24 h
Description: as §1, §2, §3, §4

[4] = tested on: cleaved PARP, XIAP and cIAP2 in BxPC-3 cells; assay: Western blot of apoptosis markers and inhibitors of apoptosis, BxPC-3; format: cell-based; conditions: for XIAP and c-IAP2 protein levels: 24 h
Description: as §1, §2
(§5) Western blot analysis. Actin, GAPDH and Ponceau staining were used as loading controls. Gemcitabine was diluted in water. Curcumin and LHRH-curcumin were diluted in DMSO.

[5] = tested on: cleaved PARP, XIAP and cIAP2 in AsPC-1 cells; assay: Western blot of apoptosis markers and inhibitors of apoptosis, AsPC-1; format: cell-based; conditions: for XIAP and c-IAP2 protein levels: 24 h
Description: as §1, §2, §5

[6] = tested on: non-target control (NT) Panc-1 spheroides; assay: 3D spheroid growth, non-target control (NT) Panc-1; format: cell-based; conditions: 30 μM
Panc-1 cells spheroids = assay: 3D spheroid growth (IncuCyte ZOOM), Panc-1; format: cell-based; conditions: LHRH 30 μM, LHRH-curcumin 30 μM
Description: A protocol that enables the growth of identical size single cancer cell spheroids in Matrigel in 96 well plates has been developed.
Panc-1 and Mia-Paca-2 cells were grown in 10% FBS DMEM. Cells were collected after trypsinization and resuspended in phenol-red free DMEM with 10% FBS. Cells were labeled with CellTracker Red (Life Techmologies) for 5 minutes. After labeling cells were washed with PBS and transfer into 96-well Corning 7007 ULA round bottom plates at 1,000 cells/well in 100 μl phenol-red free media with 10% FBS and 5% Matrigel. […] Spheroids were grown at 37° C. and 5% CO2 in IncuCyte ZOOM (Essen Bioscience). Images were acquired every 4 h for a period of 120 h post-treatment and software analysis was design to identify the red object in the well. The data were expressed as fold increase in spheroids size at the end of the treatment using the “average red object area in the well” as determined by the IncuCyte software analysis. Reproducibility was confirmed in three independent experiments. Spheroids grew at a uniform rate (FIG. 1).

[7] = 50 uM in the presence of gemcitabine (5 uM)
[8] = curcumin, LHRH-curcumin 50 uM and 100 uM alone, gemcitabine alone
[9] = 24 h post-treatment, curcumin, LHRH-curcumin 10-100 uM, gemcitabine 1-20 uM

Molecule: COc1cc(/C=C/C(=O)CC(=O)/C=C/c2ccc(O)c(OC)c2)ccc1O [curcumin]
- XIAP and c-IAP2 protein levels [1, 7]: down-regulated
- XIAP and c-IAP2 protein levels [1, 8]: down-regulated
- apoptosis marker cleaved PARP [1, 9]: initiate apoptosis as illustrated by the presence of cleaved PARP
- mRNA levels of XIAP, cIAP1 and c-IAP2 [2]: down-regulated
- XIAP and c-IAP2 protein levels [3, 7]: down-regulated
- XIAP and c-IAP2 protein levels [3, 8]: down-regulated
- apoptosis marker cleaved PARP [3, 9]: initiate apoptosis as illustrated by the presence of cleaved PARP
- XIAP and c-IAP2 protein levels [4, 7]: down-regulated
- XIAP and c-IAP2 protein levels [4, 8]: down-regulated
- apoptosis marker cleaved PARP [4, 9]: initiate apoptosis as illustrated by the presence of cleaved PARP
- XIAP and c-IAP2 protein levels [5, 7]: down-regulated
- XIAP and c-IAP2 protein levels [5, 8]: down-regulated
- apoptosis marker cleaved PARP [5, 9]: initiate apoptosis as illustrated by the presence of cleaved PARP

Molecule: luteinizing hormone releasing hormone (EHWSYGLRPG) [LHRH, Gonadotropin-releasing hormone (GnRH, also called luteinizing hormone releasing hormone or LHRH), reference compound]
- spheroids growth [6]: inhibitory effect on NT Panc-1 spheroids growth
- spheroids growth (Panc-1 cells spheroids): inhibitory effect on spheroids growth
